Values of other authors in patent US20110034442A1, “Use and Methods of Use for an Antagonist of the Serotin3 Receptor (5-HT3) and a Selective Modulator of Chloride Channels for the Treatment of Addiction to or Dependence on Medicines/Drugs or Nervous System Disorders” (priority 2007, published 2011).
Structures can show the parent of a compound that is named as a salt. Where two headings read alike, the source gives them in different places.

Assays:
[1] = system: adolescents who had alcohol dependence; details: 4 microg/kg b.i.d.
rats [2] = system: rats
healthy human volunteers = details: pretreatment 0.15 mg/kg i.v.; oral D-amphetamine 0.5 mg/kg; subjects with robust responses
[3] = not given; remark: listed apart in the source
[4] = not given; remark: listed apart in the source
early-onset alcoholism = details: 16 microg/kg twice daily; early-onset compared with late-onset alcoholism
[5] = in vivo
[6] = in vivo; remark: listed apart in the source
[7] = pre-treatment 12 mg orally over 24 h; amphetamine 15 mg orally
mice [8] = system: mice
healthy males = details: pretreatment, nine healthy males
5-HT3 receptors = target: T1, 5-HT3 receptors (Homo sapiens, UniProt P46098); details: in vivo
T1 sequence (P46098 24-478): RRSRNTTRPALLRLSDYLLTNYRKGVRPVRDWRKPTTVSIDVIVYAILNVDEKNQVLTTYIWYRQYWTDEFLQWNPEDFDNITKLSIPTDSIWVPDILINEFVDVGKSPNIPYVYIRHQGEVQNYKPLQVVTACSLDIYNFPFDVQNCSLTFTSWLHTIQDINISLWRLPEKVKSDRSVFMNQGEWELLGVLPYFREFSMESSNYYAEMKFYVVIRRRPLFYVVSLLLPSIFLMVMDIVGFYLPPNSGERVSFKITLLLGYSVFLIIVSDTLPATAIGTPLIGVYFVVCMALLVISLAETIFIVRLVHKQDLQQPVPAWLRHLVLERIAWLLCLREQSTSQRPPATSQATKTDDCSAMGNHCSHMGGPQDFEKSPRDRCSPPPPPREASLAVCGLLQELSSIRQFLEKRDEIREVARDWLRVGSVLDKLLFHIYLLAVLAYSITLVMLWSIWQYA

[9] = system: alcohol dependent subjects; details: 4 microg/kg b.i.d.
Wistar rats = details: 0.1, 0.5, 1, 2 mg/kg intra-peritoneally, 30 minutes prior to d-amphetamine
[10] = system: cocaine-dependent men and women
mice [11] = details: 0.1 and 1 mg/kg PO
[12] = flumazenil 10 mg/kg, ondansetron 0.3 mg/kg, R(−)-alpha-metylhistamine 10 mg/kg
K+-evoked [3H]ACh efflux = details: slices from rat entorhinal cortex preloaded with [3H]choline
[13] = in vivo; remark: listed apart in the source
[14] = system: alcohol-dependent subjects; details: 15 alcohol-dependent subjects
[15] = system: alpha(4)-subunit gene expression; details: ethanol withdrawal
rat = details: elevated plus maze
rats [16] = details: rats receiving combined cocaine-diazepam compared to cocaine alone or diazepam alone
[17] = pH 7.4
acetylcholine release = details: GABA(A) receptor antagonist given with ondansetron; rat frontal cortex
[18] = in contrast to naltrexone

Cc1nccn1CC1CCc2c(c3ccccc3n2C)C1=O (racemic) [ondansetron, (±)1,2,3,9-tetrahydro-9-methyl-3-[(2-methyl-1H-imidazol-1-yl)methyl]-4H-carbazol-4-one, monohydrochlororide, dehydrate]
craving, Adolescent Obsessive-Compulsive Drinking Scale [1]: reduction
drinks per day ([1]; 8 weeks): significant decrease
safety and tolerability ([1]; oral, 8 weeks, 12 adolescents): safe and well tolerated
anxiolytic action during withdrawal from chronic chlordiazepoxide (rats [2]; rats (Rezazadeh 1992)): mixed results
efficacy in reversing various aspects of benzodiazepine withdrawal (rats [2]; rats, three tests, flumazenil given during chronic chlordiazepoxide (Prather 1993)): Inconsistent results
solubility in water and normal saline (racemic form, water and normal saline): soluble
activation-euphoria responses to D-amphetamine (healthy human volunteers): attenuated responses
changes of the self-stimulation (male rats): did not cause any substantial changes
cocaine intake the following day ([3]; administered 30 min before the cocaine session): no effect
cocaine self-administration the following day ([3]; given 3.5 h after intravenous cocaine self-administration): attenuate self-administration the following day
cocaine self-administration and sensitization ([3]; given after each second cocaine regimen dose or during the second withdrawal period): inhibited
expression of sensitization and tolerance ([4]; administered during withdrawal from intermittent and continuous cocaine): blockade of the expression of sensitization and tolerance
development of behavioral tolerance ([4]; continuous cocaine group): attenuated the development of behavioral tolerance
development of sensitization ([4]; daily injections with cocaine, inverted U-shape dose-response curve): significantly blocked the development of sensitization
subsequent behavioral response to cocaine ([4]; daily injections, saline control subjects): no consistent or significant effect
alleviation of overall mood disturbance, fatigue, vigor, confusion/bewilderment and depression (early-onset alcoholism): greater therapeutic efficacy
ensuing facilitation of self-stimulation after high-dose nicotine [5]: not the ensuing facilitation
initial depression of self-stimulation by high-dose nicotine [5]: reduced the initial depression
self-stimulation [5]: no effect
increased behavioral suppression following withdrawal from ethanol, nicotine and cocaine [6]: highly effective inhibitor
amphetamine-induced decrease in self-ratings of hunger [7]: significantly attenuated
anxiolytic action compared to naive mice (mice [8]; 0.01, 0.1 and 1 mg/kg i.p.): significant anxiolytic action
potency compared to diazepam (mice [8]; diazepam 1 mg/kg): less potent
effects of amphetamine on blood pressure or psychomotor performance tests (healthy males): not on blood pressure or psychomotor performance tests
effects of amphetamine on hunger and subjective state (healthy males): attenuated
antagonism of the effects of amphetamine (5-HT3 receptors): did not antagonize the effects of amphetamine
overall craving ([9]; early-onset alcoholics): reduced overall craving significantly
overall craving ([9]; late-onset alcoholics, compared with placebo): not late-onset alcoholics
average stereotypic score (Wistar rats): decreased
mean number of head dippings and crossings in the hole board test (Wistar rats): significantly decreased
tolerability, adverse events ([10]; 0.25 mg, 1.0 mg, or 4.0 mg twice daily, 10 weeks): well tolerated, causing no serious adverse events
dropout rate among all treatment groups ([10]; 4.0 mg twice daily): lowest dropout rate
percentage of participants with a cocaine-free week compared with the placebo group ([10]; 4.0 mg twice daily, p=0.02): greater rate of improvement
number of shocks taken (mice [11]): increased
attenuation of scopolamine-induced deficits [12]: neither flumazenil 10 mg/kg, ondansetron 0.3 mg/kg nor R(−)-alpha-metylhistamine 10 mg/kg attenuated
K+-evoked [3H]ACh efflux (K+-evoked [3H]ACh efflux): concentration-dependent increase

CN1[C@@H]2CC[C@H]1C[C@@H](OC(=O)c1cc(Cl)cc(Cl)c1)C2 [MDL 72222]
K+-evoked [3H]ACh efflux (K+-evoked [3H]ACh efflux): concentration-dependent increase

C[C@@H](N)Cc1c[nH]cn1 [R(−)-alpha-metylhistamine]
attenuation of scopolamine-induced deficits [12]: neither flumazenil 10 mg/kg, ondansetron 0.3 mg/kg nor R(−)-alpha-metylhistamine 10 mg/kg attenuated

O=Cc1c(N2CCN(Cc3ccc4c(c3)OCO4)CC2)[nH]c2ccccc12 [VA21B7, 3-[2-(4′-piperonylpiperazinyl)indolyl]carboxaldehyde]
release of suppressed behavior [13]: able to release suppressed behavior

CCOC(=O)c1ncn2c1CN(C)C(=O)c1cc(F)ccc1-2 [flumazenil, ethyl 8-fluoro-5,6-dihydro-5-methyl-6-oxo-4H-imidazo[1,5-a](1,4)benzodiazepine-3-carboxylate]
anxiolytic or anxiogenic effect [14]: neither anxiolytic nor anxiogenic
up-regulation of alpha(4)-subunit gene expression [15]: selectively prevented the up-regulation
solubility in acidic aqueous solutions (acidic aqueous solutions): slightly soluble
solubility in water (water): insoluble
anxiolytic effects (rat): did not produce any anxiolytic effects
decrease in open arm entries produced by withdrawal from ethanol treatment (rat): blocked these changes
changes of the self-stimulation (male rats): did not cause any substantial changes
seizures and incidence of death (rats [16]): unmask seizures and increase the incidence of death
octanol:buffer partition coefficient [17]: 14 to 1
peak increase of acetylcholine release over basal levels (acetylcholine release): 259%
attenuation of scopolamine-induced deficits [12]: neither flumazenil 10 mg/kg, ondansetron 0.3 mg/kg nor R(−)-alpha-metylhistamine 10 mg/kg attenuated
K+-evoked [3H]ACh efflux (K+-evoked [3H]ACh efflux): enhanced

CN1C2CCCC1CC(NC(=O)c1nn(C)c3ccccc13)C2 (centres unmarked) [granisetron]
K+-evoked [3H]ACh efflux (K+-evoked [3H]ACh efflux): concentration-dependent increase

C=C1CC[C@@]2(O)[C@H]3Cc4ccc(O)c5c4[C@@]2(CCN3CC2CC2)[C@H]1O5 [nalmefene, 17(cyclopropylmethyl)-4,5-alpha-epoxy-6-methylenemorphinan-3,14-diol,hydrochloride salt]
hepatocellular injury [18]: does not cause hepatocellular injury
